From patent US8530636B2, “Method for regulating protein function in cells in vivo using synthetic small molecules” (priority 2008, dated 2013) come the findings set out here.

Where two headings read alike, the source gives them in different places.

This data set has as its system HCT116 tumors.

With “1-[2-(3,4,5-trimethoxy-phenyl)-butyryl]-piperazine-2-carboxylic acid 3-(3,4-dimethoxy-phenyl)-1-[3-(2-morpholin-4-yl-ethoxy)-phenyl]-propyl ester [Shield1]”, for the setting “Shield1 delayed until 3 days following virus”, the “Virus in the tumor (viral luciferase expression)” value was “equivalent to those observed in animals treated with virus alone”. The “Virus in the tumor (viral luciferase expression)” value (Shield1 started prior to virus delivery) is “only modest levels of virus”. Also, for the setting “mouse, in vivo”, the Adverse physiological effects entry is listed as “no adverse physiological effects observed”; the “Tumor burden compared to virus alone” value is recorded as “significantly decreased tumor burden”; the Tumor responses result is “Seven of the eight animals demonstrated complete and durable responses”. Moreover, the “Tumor burden, Shield1 alone” value (no virus) is reported as “no effect on tumor burden”.
